Consider one molecule from US20130295017A1, “METHODS FOR SCREENING ANTIBIOTIC COMPOUNDS” (priority 2010, published 2013).

Molecules are shown by their SMILES.

This experiment has as its system S. aureus strain ALC6094. In words: Murine model of subcutaneous infection (abscess), IPTG induction of MazFsa. The format is in vivo, Balb/C female mice. The settings on record: for Log10 CFU/abscess: sacrifice day 4, n = 9. The source says:
A murine model of subcutaneous infections (abscess) was used. Such models are well-established as methods to screen for in vivo activity to affect infection processes (Tamber et al. 2010. Infect. Immun. 78:3637-3646).
In the present experiments, a bacterial strain ALC6094, which is a derivative of S. aureus strain Newman was used. This strain contains a chromosomal copy of the T7 polymerase gene and the plasmid pG164::mazFsa, which is a shuttle plasmid with an IPTG-inducible T7 promoter driving MazFsa expression. Mice were challenged with 2×10^7 CFU of bacteria via subcutaneous (s.q.) injection and mixed with 1 mM IPTG immediately before injection. After injection, half of the IPTG-treated animals received two saline injections daily while the remaining half were injected with 1 mM IPTG (s.q.) daily for 2 days. All animals were sacrificed on day 4, including untreated control groups receiving no IPTG. […] Thus, drugs that disrupt the MazEF complex would be novel compounds for use in treating S. aureus bacterial infections.
Balb/C female mice (20-22 grams) were used to assess the utility of disrupting MazEFsa activity in vivo as a potential method for testing for drug efficacy. The mice were infected subcutaneously with 200 μl of 1.5×10^8 CFU/ml of bacteria. The bacterial strain used was ALC6094, which is a derivative of S. aureus strain Newman containing a chromosomal copy of the T7 polymerase gene and the plasmid pG164::mazFsa, which is a shuttle plasmid with an IPTG-inducible T7 promoter driving MazFsa expression. Control mice were infected with the bacteria but received no further injections. Two treatment groups were tested: 1) mice injected with ALC6094 that was mixed with IPTG immediately before injection (1 ml of a 5 mM solution of IPTG); and 2) mice injected with ALC6094 mixed with IPTG and then given daily IPTG injections for two subsequent days. Animal were sacrificed on day 4 after injection. Only mice receiving saline control developed visible abscesses by day 3, while those animals receiving IPTG had visible erythematous injection sites.

For `CC(C)S[C@@H]1O[C@H](CO)[C@H](O)[C@H](O)[C@H]1O` [IPTG], the “Log10 CFU/abscess” value (ALC6094 mixed with IPTG immediately before s.q. injection) was 6.57 ± 0.83 Log10 CFU/abscess and the “Log10 CFU/abscess” value (ALC6094 mixed with IPTG plus daily IPTG injections for two subsequent days) came out at 6.59 ± 0.95 Log10 CFU/abscess. In addition, under “mice receiving IPTG induction for MazFsa”, the “abscess size vs. no IPTG controls” value is “smaller abscess sizes”.
